Assay results as given in patent publication EP1057484A1, “CELL DEATH INHIBITORS” (priority 1998, dated 1999).
Read-outs that look alike come from different tables or passages of the source.

Tests used:
[1] = system: Porcine ovarian granulosa cells (POGC); experiment: Test Example 1: inhibition of SNP-induced apoptosis of porcine ovarian granulosa cells; format: cell-based; conditions: Sus scrofa, for complete inhibition of apoptosis, SNP 0.5 mM, read-out: Minimum effective concentration
Excerpt: Porcine ovarian granulosa cells (POGC) were isolated from porcine ovaries and cultured following to a known method (Endocrinology, Vol. 136, p. 3470, 1995). Namely, porcine ovaries were rinsed with PBS buffer, and POGC were collected by aspiration from antral follicles with a syringe. Cell fraction was recovered as a precipitate by centrifugation of the suspension. The operation of suspending the cell fraction into PBS buffer and subjecting the resulting suspension to centrifugation was repeated three times to wash the cells. The POGC obtained as a precipitate were suspended again into a culture medium (DMEM containing 10% fetal bovine serum) and cell clumps were disrupted by pipetting. The cell suspension was passed through a mesh to remove contaminating tissue fragments, and then pipetted in 24-well plates for cell culture. The cell suspension was cultured for 2 days in a CO2 incubator according to a conventional procedure (37°C, 5% CO2). Then, the medium was refreshed to remove floating cells and the culture was continued for further 2 to 3 days until the cells reached subconfluency (0.7 to 2 × 10^5 cell/well). After the attaching cells were washed with serum-free medium, they were cultured in a serum-free DMEM (containing 5 µg/mL of transferrin, and 40 ng/mL of hydrocortisone, 4 mg/mL of bovine serum albumin (BSA), 100 nM androstendione).
The cell death was also confirmed by MTT assay. […] The results are shown in Table 1 where a minimum effective concentration of each compound for complete inhibition of apoptosis is described.

[2] = system: Porcine Ovarian Granulosa Cells; experiment: Test Example 7: inhibition of SNP-induced apoptosis of undifferentiated POGC; format: cell-based; conditions: Sus scrofa, for complete inhibition of apoptosis, SNP 0.5 mM, read-out: Minimum effective concentration
4B2 cells = experiment: Test Example 9: SNP-induced apoptosis of 4B2 granulosa cell line; format: cell-based; conditions: Mus musculus; 10 µM added prior to SNP (0.5 mM); observation after 24 hours; read-out: cells alive
Procedure: Mouse granulosa cells were transfected with SV40 T antigen and cDNA of steroidogenic factor-1 (SF-1/Ad4BP) to establish a cell line, named 4B2. The cell secretes progesterone in response to protein kinase-A. The 4B2 cells were cultured in 48-well culture plates until subconfluency in DMEM containing 10% fetal bovine serum in a CO2 incubator according to a conventional manner. After the medium was switched to DMEM containing 2% fetal bovine serum, SNP (0.5 mM) was added thereto. […] Then, prior to the addition of SNP, Test Compound 13, 14, 17, 20, 24 or 25 (10 µM each) was added to the present medium and observations on cells were made after 24 hours.

cerebellar granule cells [3] = experiment: Test Example 10: hydrogen peroxide-induced death of cerebellar granule cells; format: cell-based, rats; conditions: Rattus norvegicus, read-out: cells alive
Procedure: According to a known method (A Dissection and Tissue Culture Manual of the Nervous System, p. 211, 1989, Alan R, Liss, Inc.), cerebellar granule cells were isolated from the cerebellum of 7 days old rats and cultured. Namely, after conducting isolation procedures described in the above literature, the resulting cells were resuspended in DMEM containing 10% fetal bovine serum, 25 mM KCl and 2 mM glutamine, and seeded in poly-lysine coated plates. After the cells were cultured in a CO2 incubator for 48 hours according to a conventional method, cytosine-1-β-D(+)-arabinofuranoside (Ara-C) (10 µM) was added thereto, and the cell was continued to culture. The following experiments were conducted with the cells of 7 to 14 days old from the start day of the culture, the cells having completed neurite extension sufficiently. […] Furthermore, experiments were conducted by increasing a concentration of hydrogen peroxide to 300 µM. In the cases that Test Compound 18 (10 µM), Test Compound 19 (10 µM), or Test Compound 20 (10 µM) were added, about 90%, 90%, and 70% of the cells were alive, respectively, on observations after 16 hours.

erythrocytes = experiment: Test Example 13: hydrogen peroxide-induced death of erythrocytes; format: cell-based; conditions: Homo sapiens, Erythrocyte; 20 µM added prior to hydrogen peroxide (300 µM); observation after 24 hours; read-out: ratios of dead erythrocytes (dark ghost cells)
Procedure: After human blood (2 mL) was centrifuged at 1000 rpm for 5 min, the resulting cell pellets containing erythrocytes were washed three times with a DMEM medium and the cells were resuspended in the same medium (15 mL) (about 5 × 10^8 cells/mL). Ten µL of this suspension was added with 10% FCS/DMEM (10 mL), and the cells were plated in 48 well plates (500 µL/well). When hydrogen peroxide (300 µM) was added to the erythrocyte culture solution and the cells were cultured for 24 hours, all erythrocytes were dead on observations under a light microscopy (all erythrocytes were subjected to shape changes from a bright, round and concave shape into a dark hemolytic ghost through multiple shape changes). On the other hand, Test Compound 14 (30 µM), Test Compound 18 (10 µM), Test Compound 19 (20 µM) or Test Compound 20 (20 µM) was added prior to the hydrogen peroxide addition.

cerebellar granule cells [4] = experiment: Test Example 11: SNP-induced death of cerebellar granule cells; format: cell-based, rats; conditions: Rattus norvegicus; 10 µM added prior to SNP (1.5 µM); observation after 12 hours; read-out: cells alive
[5] = judged at 18 hours after SNP treatment
[6] = judged at 30 hours after SNP treatment

CN1C(=O)C(Br)=C(c2c[nH]c3ccccc23)C1=O [Compound 1, 2-bromo-3-(1H-indol-3-yl)-N-methylmaleimide]
minimal effective concentration [1, 5]: 15 µM

COc1cccc2[nH]cc(C3=C(c4c[nH]c5cccc(OC)c45)C(=O)N(C)C3=O)c12 [Compound 45]
minimal effective concentration [2, 5]: 3 µM

CN(C)CC1CCn2c(c(C3=C(c4cn(C)c5ccccc45)C(=O)NC3=O)c3ccccc32)C1 (stereo not drawn) [Compound 29]
minimal effective concentration [2, 5]: 1 µM

O=C1C(c2c[nH]c3ccccc23)=C(c2c[nH]c3ccccc23)C(=O)N1O [Compound 12]
minimal effective concentration ([2]; cells observed after 48 hours): 15 µM

NCCCn1cc(C2=C(c3c[nH]c4ccccc34)C(=O)NC2=O)c2ccccc21 [Compound 17]
minimal effective concentration [2, 6]: 3 µM | viability at 10 µM (4B2 cells): > 95%

CN1C(=O)C(c2cn(C)c3ccccc23)=C(c2cn(C)c3ccccc23)C1=O [Compound 36]
minimal effective concentration [2, 5]: 10 µM

Cc1cccc2c(C3=C(c4c[nH]c5ccccc45)C(=O)N(C)C3=O)c[nH]c12 [Compound 39]
minimal effective concentration [2, 5]: 3 µM

CN1C(=O)C(Br)=C(c2c[nH]c3ccc(Cl)cc23)C1=O [Compound 5]
minimal effective concentration ([1]; cells observed after 48 hours): 15 µM

CCCCCCCn1cc(C2=C(Br)C(=O)N(C)C2=O)c2ccccc21 [Compound 10]
minimal effective concentration ([1]; judged at 35 hours after SNP treatment): 3 µM

Cc1ccc2c(c1)c(C1=C(Br)C(=O)N(C)C1=O)cn2C(=O)OC(C)(C)C [Compound 6]
minimal effective concentration ([1]; cells observed after 48 hours): 3 µM

CN1C(=O)C(c2c[nH]c3ccc(Br)cc23)=C(c2c[nH]c3ccc(Br)cc23)C1=O [Compound 42]
minimal effective concentration [2, 5]: 1 µM

CN1C(=O)C(c2c[nH]c3ccccc23)=C(c2cn(CCCNC(=O)c3ccccc3)c3ccccc23)C1=O [Compound 21]
minimal effective concentration ([2]; cells observed after 48 hours): 7 µM

CN1CCCC1CCn1cc(C2=C(c3c[nH]c4ccccc34)C(=O)NC2=O)c2ccccc21 (stereo not drawn) [Compound 28]
minimal effective concentration [2, 5]: 3 µM

Cc1[nH]c2ccccc2c1C1=C(c2c(C)[nH]c3ccccc23)C(=O)N(C)C1=O [Compound 47]
minimal effective concentration [2, 5]: 10 µM

CCN(CC)c1ccc2c(-c3ccc(S(=O)(=O)NCCCn4cc(C5=C(c6cn(C)c7ccccc67)C(=O)NC5=O)c5ccccc54)cc3S(=O)(=O)[O-])c3ccc(=[N+](CC)CC)cc-3oc2c1 [Compound 31]
minimal effective concentration [2, 6]: 3 µM

CN1C(=O)C(c2c[nH]c3ccccc23)=C(c2c[nH]c3ccc(Cl)cc23)C1=O [Compound 24]
minimal effective concentration ([2]; cells observed after 48 hours): 3 µM | viability at 10 µM (4B2 cells): > 95%

CN1C(=O)C(Br)=C(c2cn(C(=O)OC(C)(C)C)c3ccc(Cl)cc23)C1=O [Compound 8]
minimal effective concentration ([1]; cells observed after 48 hours): 7 µM

O=C1C(c2c[nH]c3ccccc23)=C(c2c[nH]c3ccccc23)C(=O)N1Cc1ccccc1 [Compound 49]
minimal effective concentration [2, 5]: 1 µM

CN1C(=O)C(c2c[nH]c3ccccc23)=C(c2cn(CCCN)c3ccccc23)C1=O [Compound 19]
minimal effective concentration ([2]; cells observed after 48 hours): 0.7 µM | viability at 10 µM (cerebellar granule cells [3]; 10 µM added prior to hydrogen peroxide (10 µM), observation after 12 hours): > 95% | viability at 10 µM (cerebellar granule cells [3]; 10 µM, hydrogen peroxide 300 µM, observation after 16 hours): ~90% | cytotoxicity at 20 µM (erythrocytes): 10% | viability at 10 µM (cerebellar granule cells [4]): > 95%

Cn1cc(C2=C(c3cn(CCCN)c4ccccc34)C(=O)NC2=O)c2ccccc21 [Compound 26]
minimal effective concentration ([2]; cells observed after 48 hours): 1 µM

Cc1cccc2c(C3=C(Br)C(=O)N(C)C3=O)cn(C(=O)OC(C)(C)C)c12 [Compound 7]
minimal effective concentration ([1]; cells observed after 48 hours): 7 µM

N=C(N)SCCCn1cc(C2=C(c3c[nH]c4ccccc34)C(=O)NC2=O)c2ccccc21 [Compound 27]
minimal effective concentration ([2]; cells observed after 48 hours): 1 µM

CN1C(=O)C(Br)=C(c2cn(C)c3ccccc23)C1=O [Compound 9, 2-bromo-3-(1-methyl-1H-indol-3-yl)-N-methylmaleimide]
minimal effective concentration [1, 5]: 15 µM

CN1C(=O)C(c2cn(C(=O)OC(C)(C)C)c3ccccc23)=C(c2cn(C(=O)OC(C)(C)C)c3ccccc23)C1=O [Compound 23]
minimal effective concentration ([2]; cells observed after 48 hours): 5 µM

CN1C(=O)C(Br)=C(c2cn(C(=O)OC(C)(C)C)c3ccccc23)C1=O [Compound 2]
minimal effective concentration ([1]; cells observed after 48 hours): 10 µM

CN(C)CCCn1cc(C2=C(c3cn(CCCN(C)C)c4ccccc34)C(=O)N(C)C2=O)c2ccccc21 [Compound 37]
minimal effective concentration [2, 5]: 10 µM

CCCN1C(=O)C(c2c[nH]c3ccccc23)=C(c2c[nH]c3ccccc23)C1=O [Compound 15]
minimal effective concentration ([2]; cells observed after 48 hours): 3 µM

Cc1ccc2[nH]cc(C3=C(c4c[nH]c5ccc(C)cc45)C(=O)N(C)C3=O)c2c1 [Compound 40]
minimal effective concentration [2, 5]: 1 µM

Cc1ccc2[nH]cc(C3=C(Br)C(=O)N(C)C3=O)c2c1 [Compound 3]
minimal effective concentration ([1]; cells observed after 48 hours): 3 µM

O=C1NC(=O)C(c2c[nH]c3ccccc23)=C1c1c[nH]c2ccccc12 [Compound 13]
minimal effective concentration ([2]; cells observed after 48 hours): 5 µM | viability at 10 µM (4B2 cells): > 95%

Cc1cccc2c(C3=C(Br)C(=O)N(C)C3=O)c[nH]c12 [Compound 4]
minimal effective concentration ([1]; cells observed after 48 hours): 10 µM

c1ccc(N2CC(c3c[nH]c4ccccc34)C(c3c[nH]c4ccccc34)C2)cc1 (stereo not drawn) [Compound 34]
minimal effective concentration [2, 5]: 0.3 µM

CN1C(=O)C(c2c[nH]c3ccccc23)=C(c2cn(C)c3ccccc23)C1=O [Compound 35]
minimal effective concentration [2, 5]: 10 µM

COc1ccc2[nH]cc(C3=C(c4c[nH]c5ccc(OC)cc45)C(=O)N(C)C3=O)c2c1 [Compound 44]
minimal effective concentration [2, 5]: 1 µM

CN1C(=O)C(c2c[nH]c3ccccc23)C(c2cn(CCCN)c3ccccc23)C1=O (stereo not drawn) [Compound 33]
minimal effective concentration [2, 5]: 10 µM

CN1C(=O)C(c2c[nH]c3ccccc23)C(c2c[nH]c3ccccc23)C1=O (stereo not drawn) [Compound 30]
minimal effective concentration ([2]; cells observed after 48 hours): 10 µM

Cc1[nH]c2ccccc2c1C1=C(c2c[nH]c3ccccc23)C(=O)N(C)C1=O [Compound 46]
minimal effective concentration [2, 5]: 10 µM

CN1C(=O)C(c2c[nH]c3ccccc23)=C(c2cn(C(=O)OC(C)(C)C)c3ccccc23)C1=O [Compound 22]
minimal effective concentration ([2]; cells observed after 48 hours): 5 µM

O=C1OC(=O)C(c2c[nH]c3ccccc23)=C1c1c[nH]c2ccccc12 [Compound 11]
minimal effective concentration [2, 6]: 10 µM

CN1C(=O)C(c2c[nH]c3ccccc23)=C(c2c[nH]c3ccccc23)C1O (stereo not drawn) [Compound 16]
minimal effective concentration ([2]; cells observed after 48 hours): 5 µM

Cc1ccc2c(C3=C(c4c[nH]c5cc(C)ccc45)C(=O)N(C)C3=O)c[nH]c2c1 [Compound 38]
minimal effective concentration [2, 5]: 0.3 µM

CN1C(=O)C(c2c[nH]c3ccc(F)cc23)=C(c2c[nH]c3ccc(F)cc23)C1=O [Compound 41]
minimal effective concentration [2, 5]: 10 µM

O=C1C(c2c[nH]c3ccccc23)=C(c2c[nH]c3ccccc23)C(=O)N1c1ccccc1 [Compound 48]
minimal effective concentration [2, 5]: 1 µM

CN1C(=O)C(c2c[nH]c3ccccc23)=C(c2c[nH]c3ccc(Cl)cc23)C1=O [Compound 43]
minimal effective concentration [2, 5]: 3 µM
